Patent publication US20110256121A1, “METHODS AND KITS FOR DIAGNOSING OR MONITORING AUTOIMMUNE AND CHRONIC INFLAMMATORY DISEASES” (THE REGENTS OF THE UNIVERSITY OF MICHIGAN, priority 2008, published 2011)

What was measured:
Assay type in all cases: cell-based, human
KIR2DL4 = experiment: Cell stimulation with immobilized anti-KIR2DL4 and IFN-γ quantitation (Example 15); details: without anti-KIR2DL4 crosslinking, p<0.001
Method: Cell stimulation and IFN-γ quantitation. Anti-human KIR2DL4 (R&D systems) or isotype matched control (10 μg/ml in PBS) were added to 24 well plates, incubated 6 hours 37° C., then the wells were washed twice with PBS to remove unbound antibody. 2×10^5 T cells were then added to the coated wells in RPMI 1640 supplemented with 10% FBS and cultured for 20 hours. The supernatant was then recovered and IFN-γ levels measured using a human IFN-γ ELISA kit (R&D Systems).
KIR function in 5-azaC treated T cells. It was determined if 5-azaC induced KIR2DL4 stimulates IFN-γ in T cells. PBMC were stimulated with PHA for 18 hours, treated with 5-azaC, then 72 hours later CD4+ and CD8+ cells were isolated, stimulated for 6 hours with immobilized anti-KIR2DL4 or an isotype matched antibody, then IFN-γ was measured in the supernatant by ELISA.

KIR2DL4 promoter [1] = experiment: KIR2DL4 promoter methylation, bisulfite sequencing and MS-PCR
Method: Bisulfite conversion and DNA sequencing. Genomic DNA was isolated from T cells using FlexiGene DNA Kits (QIAGEN) then treated with sodium bisulfite as described (15). HotStar Taq (QIAGEN) was used for amplification with the following conditions: initial incubation 95° C. 15 min, then 45 cycles 95° C. 30 s, 52° C. 30 s and 72° C. 30 s. PCR products were purified using QIAEXII Gel Extraction Kits (QIAGEN), and cloned using the pGEM-T Easy Vector System (Promega, Madison, Wis.). 10 cloned fragments were sequenced for each sample by the University of Michigan Sequencing Core.
Real-time quantitative methylation specific PCR (MSP). Three real-time MSP assays were developed for detection and quantitation of each KIR gene: one specific for the bisulfite-converted methylated sequence, one for the bisulfite-converted unmethylated sequence, and a loading control comprising primers to an adjacent bisulfite-converted sequence lacking CG pairs. MSP reactions were performed using QuantiTect SYBR Green PCR kits (QIAGEN) according to the manufacture's protocol using […] of each primer, 100 ng converted DNA and the Rotor-Gene 3000. […] Levels of amplified methylated and unmethylated fragments were standardized to the control fragment, and the methylation index calculated as […]

KIR2DL4 promoter [2] = experiment: KIR2DL4 promoter reporter construct assay in T cells
Method: (§1) Reporter construct assays. Amplified KIR promoter fragments were subcloned into the EcoRI site of the promoterless pmaxFP-Yellow-PRL vector (Amaxa GmbH). Plasmids were purified using QIAGEN EndoFree Plasmid Kits (QIAGEN), and 2 μg of DNA transfected into untreated or 5-azaC treated human T cells using the human T cell nucleofector kit (Amaxa GmbH) and the manufacturer's protocol. Controls included cotransfection with pmaxGFP (Amaxa GmbH) and transfection with the promoterless reporter vector. Fluorescence was measured by flow cytometry. Site directed mutagenesis. Mutations were introduced into the same pmaxFP-Yellow-PRL KIR2DL2 and KIR2DL4 promoter constructs using the QuickChange Multi Site-Directed Mutagenesis Kit (Stratagene, La Jolla, Calif.). The changes include a […]→[…] mutation at −78→−71 in the Sp1 site, a CCC→ACA mutation at −61→−59 in the Ets1 site, or both, in the KIR2DL2 promoter, and a TTT→GGG mutation at −73→−71 in the Ets1 site, a CCC→ACA mutation at −61→−59 in the Ets1 site, or both, in the KIR2DL4 promoter. A separate G→A mutation in the AML site was also introduced into both promoters at −98 (16; 17). The constructs were transfected in to PHA stimulated, 5-azaC treated T cells as above. Controls included transfection with pmaxGFP.
(§2) Effects of 5-azaC on KIR transcriptional activator-DNA interactions. […]

KIR2DL2 promoter = KIR2DL2 promoter reporter construct assay in T cells
Method: as §1, §2

[3] = 5-azaC treated vs untreated T cells, FIG. 29b, p<0.005
[4] = relative to untreated T cells, FIG. 29c

SMILES: Nc1ncn([C@@H]2O[C@H](CO)[C@@H](O)[C@H]2O)c(=O)n1 [5-azaC, 5-azacytidine]
- IFN-γ secretion by 5-azaC treated CD4+ and CD8+ T cells (KIR2DL4): secrete significant (p<0.001) amounts of IFN-γ
- KIR2DL4 promoter methylation pattern, bisulfite sequencing (KIR2DL4 promoter [1]; CD4+ and CD8+ cells, 5-azaC treated vs untreated): generalized demethylation in the treated cells
- KIR2DL4 promoter methylation index, MS-PCR (KIR2DL4 promoter [1]; CD4+ and CD8+ subsets, p<0.001): demethylates these regions in all 5 subjects
- increase of KIR2DL4 promoter function (KIR2DL4 promoter [2]; [3]): 3-4 fold
- increase of expression of the unmodified KIR2DL4 construct (KIR2DL4 promoter [2]; [4]): ~3 fold
- increase of KIR2DL2 promoter function (KIR2DL2 promoter; [3]): 3-4 fold
- increase of expression of the unmodified KIR2DL2 construct (KIR2DL2 promoter; [4]): ~2 fold
